Source: article PMC7990177, “Naegleria fowleri: Protein structures to facilitate drug discovery for the deadly, pathogenic free-living amoeba” (PLoS ONE, 2021)

Tests used:
[1] = target: T1, N. fowleri peptidylprolyl isomerase (NfPPI) (Naegleria fowleri, UniProt A0A2H4A315); experiment: X-ray crystal structure; assay type: binding; settings: active site; Fig 4C legend calls the 6MKE ligand FK506-AN
T1 construct: gene NF0084240; N-terminal His tag (vector pBG1861), E. coli BL21(DE3)R3 Rosetta; 119 residues; FKBP family; chains A-D in crystal
T1 sequence (A0A2H4A315 1-119): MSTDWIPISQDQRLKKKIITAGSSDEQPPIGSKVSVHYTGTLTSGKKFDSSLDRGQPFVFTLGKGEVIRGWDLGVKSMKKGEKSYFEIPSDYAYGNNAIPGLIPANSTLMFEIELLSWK

[2] = target: T2, N. fowleri S-adenosyl-L-homocysteine hydrolase (NfSAHH) (Naegleria fowleri, UniProt A0A1Z0YU84); experiment: X-ray crystal structure; assay type: binding
T2 construct: gene NF0035640; N-terminal His tag (vector pBG1861), E. coli BL21(DE3)R3 Rosetta; 472 residues; homo-tetramer in asymmetric unit
T2 sequence (A0A1Z0YU84 1-472): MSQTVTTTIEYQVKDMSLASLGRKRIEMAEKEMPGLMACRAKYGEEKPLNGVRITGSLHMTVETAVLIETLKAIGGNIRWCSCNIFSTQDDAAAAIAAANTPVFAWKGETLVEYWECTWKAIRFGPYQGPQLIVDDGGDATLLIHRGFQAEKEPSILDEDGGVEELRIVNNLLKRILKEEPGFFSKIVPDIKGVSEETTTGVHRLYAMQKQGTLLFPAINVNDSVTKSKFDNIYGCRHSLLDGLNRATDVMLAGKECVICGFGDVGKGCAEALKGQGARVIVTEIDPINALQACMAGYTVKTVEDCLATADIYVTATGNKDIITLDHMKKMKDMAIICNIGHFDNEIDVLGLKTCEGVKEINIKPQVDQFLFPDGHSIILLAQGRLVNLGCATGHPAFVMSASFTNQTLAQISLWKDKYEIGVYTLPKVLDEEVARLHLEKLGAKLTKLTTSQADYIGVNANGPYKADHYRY

C=CC[C@@H]1/C=C(\C)C[C@H](C)C[C@H](OC)[C@H]2O[C@@](O)(C(=O)C(=O)N3CCCC[C@H]3C(=O)O[C@H](/C(C)=C/[C@@H]3CC[C@@H](O)[C@H](OC)C3)[C@H](C)[C@@H](O)CC1=O)[C@H](C)C[C@@H]2OC [FK506]
X-ray crystal structure [1]: Quaternary structure of NfPPI (6MKE)

NC(=O)c1ccc[n+]([C@@H]2O[C@H](COP(=O)(O)OP(=O)(O)OC[C@H]3O[C@@H](n4cnc5c(N)ncnc54)[C@H](O)[C@@H]3O)[C@@H](O)[C@H]2O)c1 [NAD]
X-ray crystal structure ([2]; with adenosine, 2.0 Å omit map shown): contains the adenosine substrate and NAD cofactors bound to the active site

Nc1ncnc2c1ncn2[C@@H]1O[C@H](CO)[C@@H](O)[C@H]1O [adenosine]
X-ray crystal structure ([2]; with NAD, active site, closed conformation): contains the adenosine substrate and NAD cofactors bound to the active site
